# Laboratory results as given in patent publication US20060004088A1, “Furan derivatives for preventing and curing osteoporosis and pharmaceutical compositions containing the same” (OCT INC., priority 2002, published 2006).
# Entries after “also recorded” stand apart in the source; their conditions may differ.
# How the values were obtained:
# [1] = system: ovariectomized female white mice; assay: Preventive effect on osteoporosis, bone mineral densitometer; format: in vivo; details: for Change in BMD, %: oral 10 mg per mouse
# Procedure: After ovariectomy, female white mice weighing about 250 g were orally administered with 10 mg of the Compound 1 per mice for four weeks. Bone mineral density (BMD) was measured before the ovariectomy and every week during the administration of the Compound 1, using a bone mineral densitometer, XCT 540 Research SA made in Germany.
# (§1) After anesthetizing the mice being bred in cages by intraperitoneal injection of a mixture of Ketamine HCl (ketara 10 mg/kg) and 2% xylazine HCl (Roupun 0.15 ml/kg), BMD measurement was made at a voxel size of 0.1×0.1 mm^2 and threshold value 280 mg/cm^2 for cancellous bone and 500 mg/cm^2 for compact bone. The analysis sites at the proximal tibias were determined by Scout scans (10 mm/sec), and BMD was measured at three slices at the determined sites by CT scans (7 mm/sec). BMD measurement was performed twice or more at the same every week during four weeks.
# [2] = system: transcriptional factor Runx2; assay: Runx2 expression, p6xOSE2-Luc luciferase assay in C2C12 cells; format: cell-based, mouse
# Procedure: (§2) In the following tests, three kinds of cell lines were used. The human osteosarcoma cell lines, MG-63 (ATCC No. CRL-1427) and HOS (ATCC No. CRL-1543), and mouse muscle C2C12 muscle cells (ATCC No. CRL-1772) were purchased from ATCC (American Type Culture Collection, Rockville, USA), and cultured in Dulbecco's modified Eagle's medium (DMEM) supplemented with 10% fetal bovine serum (FBS).
# Primarily, transient transfection was carried out using a p6xOSE2-Luc vector, which was prepared by inserting into a pGL3 promoter vector six tandem copies of the OSE2 motif, the binding site of the transcriptional factor Runx2 that is a critical regulator for osteoblast differentiation. Runx2 expression levels were determined by luciferase assay. The test procedure will be described in more detail, as follows.
# C2C12 cells were plated onto 6-well plates at a density of 1(10^5 cells per well, and cultured for 24 hrs in a 5% CO2 incubator.
# Then, the cells transiently transfected with the p6xOSE2-Luc vector using a transfection reagent, LipofectAmine, as follows. The plasmid DNA was reacted with the transfection reagent for 15 min to form p6xOSE2-Luc DNA:lipofectamine complexes. During this reaction, culture medium was removed from each well of the plates, the cells were washed with FBS-free DMEM, and 800 μl of FBS-free DMEM was added to each well. […]
# [3] = system: ovariectomized female white mice with onset of osteoporosis; assay: Therapeutic effect on osteoporosis, bone mineral densitometer; format: in vivo
# Procedure: After ovariectomy, female white mice weighing about 250 g were bred for four weeks. After checking the onset of osteoporosis in the mice, each of the mice was orally administered with 220 μl of the Compound 1 dissolved in 30 ml water for four weeks.
# BMD measurement was performed before ovariectomy and every week for eight weeks after ovariectomy, using a bone mineral densitometer, XCT 540 Research SA made in Germany.
# as §1, with “0.1×0,1” for “0.1×0.1”, “values of” for “value”, “same site” for “same”, “eight weeks after ovariectomy.” for “four weeks.”
# [4] = system: MG-63 osteoblasts; assay: Proliferation of MG-63 osteoblasts (3H-thymidine incorporation); format: cell-based, human; details: for Proliferation rate of MG-63 cells, %: 1% FBS, untreated control = 100; for proliferation rate of osteoblasts compared to a control not treated: text summary, concentration not stated
# From the text: as §2
# In order to indirectly evaluate cytotoxicity of the Compound 1 and investigate effect of the Compound 1 naturally extracted on obsteoblast proliferation, proliferation of MG-63 osteoblasts was investigated by measuring the amount of ^3H-thymidine incorporated into cellular DNA upon DNA replication. The cells were aliquotted onto 24-well plates at a density of 2×10^4 cells per well. The next day, after exchanging culture medium to medium containing 1% FBS, the cells were treated with the compound 1 serially diluted at various concentrations and further cultured for 48 hrs. Four hours before finishing the culture of 48 hrs, ^3H-thymidine was added to the medium in an amount of 3 μCi per well. The cells were washed with phosphate buffer, and treated with 5% trichloroacetic acid (TCA) pre-cooled on ice. Each of the separated TCA-insoluble fractions was dissolved in 0.1 M NaOH. With a portion of each fraction, ^3H-thymidine uptake by the cells was measured using a liquid scintillation counter.
# [5] = system: osteoprotegerin (OPG); assay: Osteoprotegerin (OPG) expression in MG63 cells, OPG ELISA; format: cell-based, human; details: for OPG expression level in MG63 cells, %: control = 100
# Procedure: as §2
# When MG63 cells grew confluently on 96-well plates, […] of FBS-free DMEM containing various concentrations of the Compound 1 was added to each well. After incubation for 16 hrs, the culture supernatants were collected. The amount of OPG released into the medium was determined using an OPG ELISA kit.
smiles,measurement,setting,value
"O=Cc1ccc(CO)o1 [Compound 1, 5-hydroxymethylfuran-2-carboxyaldehyde]",BMD after four weeks of administration compared to before ovariectomy (in words),[1]; oral 10 mg/day for four weeks after ovariectomy,increase in BMD; also recorded: remarkably increased bone mineral density (BMD)
same,"Change in BMD, %","[1]; week 1 after ovariectomy, control −7.5",−2.5%
same,"Change in BMD, %","[1]; week 2 after ovariectomy, control −11.6",−3.2%
same,"Change in BMD, %","[1]; week 3 after ovariectomy, control −14.9",−1.8%
same,"Change in BMD, %","[1]; week 4 after ovariectomy, control −18.6",3.7%
same,effect on activity of Runx2 (in words),[2],increase the activity of Runx2
same,decrease of BMD compared to that before the ovariectomy,[3]; control about 22%,about 15%
same,reduction of BMD compared to a control (in words),[3]; oral 220 μl/day for four weeks after four weeks of osteoporosis development,very slight reduction of BMD
same,"Change in BMD, %","[3]; week 1 after ovariectomy (administration begins after week 4), control −3",−2.9%
same,"Change in BMD, %","[3]; week 2 after ovariectomy (administration begins after week 4), control −10",−10.5%
same,"Change in BMD, %","[3]; week 3 after ovariectomy (administration begins after week 4), control −15",−14%
same,"Change in BMD, %","[3]; week 4 after ovariectomy (administration begins after week 4), control −19",−17%
same,"Change in BMD, %","[3]; week 5 after ovariectomy, oral 220 μl in 30 ml water from week 4, control −21.8",−16.5%
same,"Change in BMD, %","[3]; week 7 after ovariectomy, oral 220 μl in 30 ml water from week 4, control −25.9",−19%
same,"Change in BMD, %","[3]; week 8 after ovariectomy, oral 220 μl in 30 ml water from week 4, control −32",−21.4%
same,"Proliferation rate of MG-63 cells, %","[4]; 10^−4 M Compound 1, 48 hrs",105.50 ± 5.90%
same,"Proliferation rate of MG-63 cells, %","[4]; 10^−5 M Compound 1, 48 hrs",102.63 ± 8.53%
same,"Proliferation rate of MG-63 cells, %","[4]; 10^−6 M Compound 1, 48 hrs",105.56 ± 5.49%
same,"Proliferation rate of MG-63 cells, %","[4]; 10^−7 M Compound 1, 48 hrs",103.91 ± 5.81%
same,"Proliferation rate of MG-63 cells, %","[4]; 10^−8 M Compound 1, 48 hrs",101.38 ± 4.65%
same,proliferation rate of osteoblasts compared to a control not treated,[4],over 105%
same,proliferation rate of osteoblasts compared to a control not treated,[4]; listed as Example 1,≥ 105%
same,effect on expression of osteoprotegerin (OPG) in osteoblasts (in words),[5],increases the expression of osteoprotegerin (OPG)
same,"OPG expression level in MG63 cells, %","[5]; 10^−6 M Compound 1, 16 hrs",866.90 ± 10.59%
same,"OPG expression level in MG63 cells, %","[5]; 10^−8 M Compound 1, 16 hrs",204.30 ± 14.96%
